What was measured:
human A3 receptor = target: T1, human A3 receptor (Homo sapiens, UniProt P0DMS8); assay: Adenylate cyclase assay, CHO cell membranes, forskolin stimulated; assay type: biochemical; settings: forskolin 1 μM
T1 sequence (P0DMS8 1-318): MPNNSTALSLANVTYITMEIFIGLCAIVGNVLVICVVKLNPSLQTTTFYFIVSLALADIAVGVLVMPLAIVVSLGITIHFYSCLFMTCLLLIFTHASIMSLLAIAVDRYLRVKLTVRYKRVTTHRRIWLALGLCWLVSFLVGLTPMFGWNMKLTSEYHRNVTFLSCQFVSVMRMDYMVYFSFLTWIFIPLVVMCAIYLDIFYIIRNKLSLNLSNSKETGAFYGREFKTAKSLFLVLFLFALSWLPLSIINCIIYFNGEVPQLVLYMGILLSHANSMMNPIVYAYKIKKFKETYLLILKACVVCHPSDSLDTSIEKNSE

HCE cells = assay: Free intracellular Ca2+ in HCE cells (fura-2); assay type: cell-based, human
Description: In other cells, stimulation of the A3-receptor can lead to an elevation of intracellular Ca^2+(Kohno et al., supra.), so intracellular Ca^2+was monitored in HCE cells to provide an additional physiologic assay for the presence of A3 receptors. HCE cells grown on coverslips for 24-48 hrs were loaded with 1-5 μM fura-2 AM for 30-45 min at room temperature. The cells were subject to a post-incubation interval of 20-40 minutes at room temperature before recording began. The coverslips were mounted on a Nikon Diaphot microscope and visualized with a ×40 oil-immersion fluorescence objective. The emitted fluorescence (510 nm) from 10-12 confluent cells was acquired at a sampling frequency of 1 Hz following excitation at 340 nm and 380 nm, and the ratio was determined with a Delta-Ram system and Felix software (Photon Technology International Inc., Princeton, N.J.).Cells were perfused with an isotonic solution consisting of (in mM) 105 NaCl, 6HEPES (acid), 4HEPES (Na^+), 2 CaCl2, 1 MgCl2, 4 KCl, 5 glucose and 90 mannitol, at an osmolality of 327 mOsm, pH 7.4. […]
where Rmin and Rmax are the ratio of fluorescence at […] in the absence of Ca^2+, and in the presence of saturating Ca^2+, respectively. R is the ratio measured experimentally. The S2f and S2b are the fluorescence emitted at 380 nM in the Ca^2+ free and Ca^2+ bound states respectively. […]

rabbit iris-ciliary body = assay: Short-circuit current across intact rabbit ciliary epithelium (iris-ciliary body), 5 mM Ba2+; settings: 30 μM, solvent-corrected
Excerpt: Adult male Dutch belted rabbits weighing 1.8-2.4 kg (Ace Animals, Boyertown, Pa.) were anesthetized with pentobarbital and sacrificed (Carre et al., J. Membr. Biol. 146:293-305, 1995). After enucleation, the iris-ciliary body (I-CB) was isolated as previously described (Carre et al., 1995, supra.). The experiments were in accordance with the Resolution on the Use of Animals in Research of the Association for Research in Vision and Ophthalmology.
The pupil and central iris were occluded with a Lucite disc, and the iris-ciliary body was mounted between the two halves of a Lucite chamber (1). The annulus of exposed tissue provided a projected surface area of 0.93 cm^2. Preparations were continuously bubbled with 95%O2-5%CO2 for maintenance of pH 7.4 in a Ringer's solution comprising (in mM): 110.0 NaCl, 10.0HEPES (acid), 5.0HEPES (Na^+), 30.0 NaHCO3, 2.5 CaCl2, 1.2 MgCl2, 5.9 KCl, and 10.0 glucose, at an osmolality of 305 mOsm. BaCl2 (5 mM) was added to the solution to block K^+ currents. The transepithelial potential was fixed at 0 mV, corrected for solution series resistance, and the short-circuit current was monitored on a chart recorder. Data were digitally acquired at 10 Hz via a DigiData 1200A converter and AxoScope 1.1 software (Axon Instruments, Foster City, Calif.). Automatic averaging was performed with a reduction factor of 100 to achieve a final sampling rate of 6/min. […]

Maximal inhibition of adenylate cyclase (human A3 receptor): ~60 % of total stimulation
SMILES: CNC(=O)[C@H]1O[C@@H](n2cnc3c(NCc4cccc(I)c4)ncnc32)[C@H](O)[C@@H]1O [IB-MECA, N^6-(3-iodobenzyl)-adenosine-5′-N-methyluronamide]
mean rise of intracellular Ca2+ (HCE cells; 100 nM IB-MECA): 17 ± 5 nM
mean rise of intracellular Ca2+ (HCE cells; 1 μM IB-MECA): 22 ± 6 nM
effect on short-circuit current (rabbit iris-ciliary body): significant increase in the short-circuit current

Reference: US6528516B1, “Methods for reducing intraocular pressure using A3 adenosine receptor antagonists” (Trustees of the University of Pennsylvania, The Center for …, priority 1998, dated 2003)
